Reference: patent US9441012B2, “Fluorinated epoxyketone-based compounds and uses thereof as proteasome inhibitors” (FLUORINOV PHARMA INC., priority 2012, dated 2016)

Legend:
Experiment in all cases: NCI 60 human tumor cell line screen (SRB)
Format in all cases: cell-based
U251 = U251 (CNS Cancer); 48 h
Text: (§1) Representative compounds of Formula I were screened using the National Cancer Institute (NCI) screening panel, which consists of a panel of 60 different human tumor cell lines, representing leukemia [CCRF-CEM, HL-60 (TB), K-562, MOLT-4, SR], melanoma [LOX IMVI, MALME-3M, M14, SMDA-MB-435, SK-MEL-2, SK-MEL-28, SK-MEL-5, UACC-257 and UACC-62] and cancers of the lung [A549/ATCC, EKVX, HOP-62, HOP-93, NCI-H226, NCI-H23, NCI-H322M, NCI-H460], colon [COLO 205, HCT-116, HCT-15, HT29, KM12, SW-620], brain [SF-268, SF-295, SF-539, SNB-19, SNB-75, U251], ovary [IGROV1, OVCAR-3, OVCAR-4, OVCAR-5, OVCAR-8, NCI/ADR-RES, SK-OV-3], breast [MCF7, MDA-MB-231, BT-549, T-47D, MDA-MB-468], prostate [PC-3, DU-145], and renal[786-0, A498, ACHN, CAKI-1, RXF-393, SN12C, TK-10, UO-31] cancers.
(§2) After 24 h, two plates of each cell line are fixed in situ with TCA, to represent a measurement of the cell population for each cell line at the time of drug addition (Tz). Experimental drugs are solubilised in dimethyl sulfoxide at 400-fold the desired final maximum test concentration and stored frozen prior to use. At the time of drug addition, an aliquot of frozen concentrate is thawed and diluted to twice the desired final maximum test concentration with complete medium containing 50 μg/ml gentamicin. Additional four, 10-fold or ½ log serial dilutions are made to provide a total of five drug concentrations plus control. Aliquots of 100 μl of these different drug dilutions are added to the appropriate microtiter wells already containing 100 μl of medium, resulting in the required final drug concentrations.
(§3) Following drug addition, the plates are incubated for an additional 48 h at 37° C., 5% CO2, 95% air, and 100% relative humidity. For adherent cells, the assay is terminated by the addition of cold TCA (trichloroacetic acid). Cells are fixed in situ by the gentle addition of 50 μl of cold 50% (w/v) TCA (final concentration, 10% TCA) and incubated for 60 minutes at 4° C. The supernatant is discarded, and the plates are washed five times with tap water and air dried. Sulforhodamine B (SRB) solution (100 μl) at 0.4% (w/v) in 1% acetic acid is added to each well, and plates are incubated for 10 minutes at room temperature. After staining, unbound dye is removed by washing five times with 1% acetic acid and the plates are air dried. Bound stain is subsequently solubilised with 10 mM trizma base, and the absorbance is read on an automated plate reader at a wavelength of 515 nm. For suspension cells, the methodology is the same except that the assay is terminated by fixing settled cells at the bottom of the wells by gently adding 50 μl of 80% TCA (final concentration, 16% TCA). Using the seven absorbance measurements [time zero, (Tz), control growth, (C), and test growth in the presence of drug at the five concentration levels (Ti)], the percentage growth is calculated at each of the drug concentration levels. Percentage growth inhibition is calculated as: [(Ti−Tz)/(C−Tz)]×100 for concentrations in which Ti>/=Tz and [(Ti−Tz)/Tz]×100 for concentrations in which Ti<Tz.
(§4) Three dose response parameters are calculated for each experimental agent. Growth inhibition of 50% (GI50) is calculated from [(Ti−Tz)/(C−Tz)]100=50, which is the drug concentration resulting in a 50% reduction in the net protein increase (as measured by SRB staining) in control cells during the drug incubation. The drug concentration resulting in total growth inhibition (TGI) is calculated from Ti=Tz. The LC50 (concentration of drug resulting in a 50% reduction in the measured protein at the end of the drug treatment as compared to that at the beginning) indicating a net loss of cells following treatment is calculated from [(Ti−Tz)/Tz]×100=−50. Values are calculated for each of these three parameters if the level of activity is reached. However, if the effect is not reached or is exceeded, the value for that parameter is expressed as greater or less than the maximum or minimum concentration tested.

LOX IMVI = LOX IMVI (Melanoma); 48 h
Text: as §1, §2, §3, §4

DU-145 = DU-145 (Prostate Cancer); 48 h
Text: as §1, §2, §3, §4

UACC-257 = UACC-257 (Melanoma); 48 h
Text: as §1, §2, §3, §4

MDA-MB-231/ATCC = MDA-MB-231/ATCC (Breast Cancer); 48 h
Text: as §1, §2, §3, §4

BT-549 = BT-549 (Breast Cancer); 48 h
Text: as §1, §2, §3, §4

OVCAR-3 = OVCAR-3 (Ovarian Cancer); 48 h
Text: as §1, §2, §3, §4

SF-295 = SF-295 (CNS Cancer); 48 h
Text: as §1, §2, §3, §4

RPMI-8226 = RPMI-8226 (Leukemia); 48 h
Text: as §1, §2, §3, §4

SNB-75 = SNB-75 (CNS Cancer); 48 h
Text: as §1, §2, §3, §4

OVCAR-8 = OVCAR-8 (Ovarian Cancer); 48 h
Text: as §1, §2, §3, §4

K-562 = K-562 (Leukemia); 48 h
Text: as §1, §2, §3, §4

SMILES | Log10GI50 (U251) | Log10LC50 (U251) | Log10TGI50 (U251) | Log10GI50 (LOX IMVI) | Log10LC50 (LOX IMVI) | Log10TGI50 (LOX IMVI) | Log10GI50 (DU-145) | Log10LC50 (DU-145) | Log10TGI50 (DU-145) | Log10GI50 (UACC-257) | Log10LC50 (UACC-257) | Log10TGI50 (UACC-257) | Log10GI50 (MDA-MB-231/ATCC) | Log10LC50 (MDA-MB-231/ATCC) | Log10TGI50 (MDA-MB-231/ATCC) | Log10GI50 (BT-549) | Log10LC50 (BT-549) | Log10TGI50 (BT-549) | Log10GI50 (OVCAR-3) | Log10LC50 (OVCAR-3) | other results
Cc1ncc(C(=O)N[C@@H](COC(F)F)C(=O)N[C@@H](COC(F)F)C(=O)N[C@@H](Cc2ccccc2)C(=O)[C@@]2(C)CO2)s1 [Example 1, 2-methyl-thiazole-5-carboxylic acid ((S)-1-{(S)-1-[(S)-1-benzyl-2-((R)-2-methyloxiranyl)-2-oxo-ethylcarbamoyl]-2-difluoromethoxyethylcarbamoyl}-2-difluoromethoxyethyl)-amide] | −6.55 | >−4.00 | −4.94 | −6.96 | −6.16 | −6.56 | −6.58 | −5.02 | −5.64 | −6.87 | >−4.00 | −6.20 | −6.66 | −4.73 | −6.01 | −7.49 | −5.74 | −6.87 | −7.46 | −6.30 | Log10TGI50 (OVCAR-3): −6.90; Log10GI50 (SF-295): −7.17; Log10LC50 (SF-295): −4.88; Log10TGI50 (SF-295): −6.24; Log10GI50 (RPMI-8226): −7.40; Log10LC50 (RPMI-8226): >−4.00; Log10TGI50 (RPMI-8226): −4.86; Log10GI50 (SNB-75): −6.81; Log10LC50 (SNB-75): >−4.00; Log10TGI50 (SNB-75): −6.24; Log10GI50 (OVCAR-8): −5.80; Log10LC50 (OVCAR-8): >−4.00; Log10TGI50 (OVCAR-8): >−4.00; Log10GI50 (K-562): −6.50; Log10LC50 (K-562): >−4.00; Log10TGI50 (K-562): >−4.00
CC(C)C[C@H](NC(=O)[C@H](Cc1ccccc1)NC(=O)[C@H](COC(F)F)NC(=O)CN1CCOCC1)C(=O)[C@@]1(C)CO1 [Example 25, (2S)-2-[[(2S)-3-(difluoromethoxy)-2-[(2-morpholinoacetyl)amino]propanoyl]amino]-N-[(1S)-3-methyl-1-[(2R)-2-methyloxirane-2-carbonyl]butyl]-3-phenyl-propanamide] | −7.44 | >−4.00 | −6.75 | −7.73 | −7.10 | −7.42 | −7.27 | >−4.00 | −5.32 | −7.18 | >−4.00 | −6.32 | −7.52 | −4.21 | −6.80 | −7.73 | −7.05 | −7.39 | −7.66 | −6.97 | Log10TGI50 (OVCAR-3): −7.33; Log10GI50 (SF-295): −7.68; Log10LC50 (SF-295): −6.49; Log10TGI50 (SF-295): −7.26; Log10GI50 (RPMI-8226): −7.52; Log10LC50 (RPMI-8226): >−4.00; Log10TGI50 (RPMI-8226): −7.04; Log10GI50 (SNB-75): −7.71; Log10LC50 (SNB-75): −6.35; Log10TGI50 (SNB-75): −7.24; Log10GI50 (OVCAR-8): −7.32; Log10LC50 (OVCAR-8): >−4.00; Log10TGI50 (OVCAR-8): −6.41; Log10GI50 (K-562): −7.41; Log10LC50 (K-562): >−4.00; Log10TGI50 (K-562): >−4.00
C[C@]1(C(=O)[C@H](Cc2ccccc2)NC(=O)[C@H](COC(F)F)NC(=O)[C@H](COC(F)F)NC(=O)CN2CCOCC2)CO1 [Example 26, (S)-N-{(S)-1-[(S)-1-Benzyl-2-((R)-2-methyl-oxiranyl)-2-oxo-ethylcarbamoyl]-2-difluoromethoxyethyl}-3-difluoromethoxy-2-(2-morpholin-4-yl-acetylamino)-propio-namide] | −7.44 | >−4.00 | −6.75 | −7.73 | −7.10 | −7.42 | −7.27 | >−4.00 | −5.32 | −7.18 | >−4.00 | −6.32 | −7.52 | −4.21 | −6.80 | −7.73 | −7.05 | −7.39 | −7.66 | −6.97 | Log10TGI50 (OVCAR-3): −7.33; Log10GI50 (SF-295): −7.68; Log10LC50 (SF-295): −6.49; Log10TGI50 (SF-295): −7.26; Log10GI50 (RPMI-8226): −7.52; Log10LC50 (RPMI-8226): >−4.00; Log10TGI50 (RPMI-8226): −7.04; Log10GI50 (SNB-75): −7.71; Log10LC50 (SNB-75): −6.35; Log10TGI50 (SNB-75): −7.24; Log10GI50 (OVCAR-8): −7.32; Log10LC50 (OVCAR-8): >−4.00; Log10TGI50 (OVCAR-8): −6.41; Log10GI50 (K-562): −7.41; Log10LC50 (K-562): >−4.00; Log10TGI50 (K-562): >−4.00
C[C@]1(C(=O)[C@H](Cc2ccccc2)NC(=O)[C@H](Cc2ccccc2)NC(=O)[C@H](COC(F)F)NC(=O)CN2CCOCC2)CO1 [Example 29] | −6.98 | >−4.00 | −5.70 | −7.50 | −6.35 | −6.90 | −7.00 | −4.09 | −5.05 | −6.81 | >−4.00 | −6.00 | −7.04 | −4.44 | −6.27 | −7.26 | −4.94 | −6.59 | −7.35 | −5.66 | Log10TGI50 (OVCAR-3): −6.71; Log10GI50 (SF-295): −7.19; Log10LC50 (SF-295): −5.94; Log10TGI50 (SF-295): −6.55; Log10GI50 (RPMI-8226): −7.40; Log10LC50 (RPMI-8226): >−4.00; Log10TGI50 (RPMI-8226): −6.43; Log10GI50 (SNB-75): −6.83; Log10LC50 (SNB-75): −5.96; Log10TGI50 (SNB-75): −6.41; Log10GI50 (OVCAR-8): −6.59; Log10LC50 (OVCAR-8): >−4.00; Log10TGI50 (OVCAR-8): >−4.00; Log10GI50 (K-562): −7.00; Log10LC50 (K-562): >−4.00; Log10TGI50 (K-562): >−4.00
